Tests used:
[1] = tested on: human donor corneal endothelial cells; assay: Mitochondrial respiration assay (Seahorse XFe24 extracellular flux analyzer) of donor corneal endothelium after storage in supplemented Optisol GS; format: cell-based; settings: 1 μM coQ10, tissues in storage
[2] = tested on: human donor corneal endothelial cells; assay: Apoptosis and necrosis assays on donor endothelial cell-Descemet membrane tissue after storage; format: cell-based; settings: for corneal endothelial cell necrosis, change vs control: vs diluent control
Procedure: Human corneal tissue pairs were obtained by Iowa Lions Eye Bank (ILEB) from nondiabetic donors 60-75 years old and stored in Optisol GS (Bausch+Lomb, Irvine, Calif.) at 4° C. following procurement in accordance with Eye Bank Association of America and ILEB policies and procedures. […] Descemet membrane and endothelial cell punches were collected and mounted onto the bottom of a Seahorse assay plate (cells facing upward). Mitochondrial respiration was assayed by measuring oxygen consumption using the Seahorse XFe24 Extracellular Flux Analyzer (Agilent Technologies, Santa Clara, Calif.) over 120 minutes (9-minute intervals). Punches were labeled with a nuclear counterstain (DAPI) and remaining tissues were mounted onto slides and labeled with 488A-Annexin V, Ethidium Homodimer III, and Hoechst 33342 (Apoptotic, Necrotic, and Healthy Cells Quantification Kit; Biotium, Fremont, Calif.) to assay cell health. Nuclei were counted in each punch to normalize respirometry data. Immunohistochemistry densitometry was measured using ImageJ software.
(§1) Human corneal tissue pairs were obtained by Iowa Lions Eye Bank (ILEB) from nondiabetic donors 60-75 years old and stored in Optisol GS (Bausch+Lomb, Irvine, Calif.) at 4° C. following procurement in accordance with Eye Bank Association of America and ILEB policies and procedures. For 5 days prior to testing, but within 9 days of procurement, one stored tissue from a corneal pair was treated with 10 μM CoQ10, while the mate tissue was treated with diluent only as a control. Descemet membrane and endothelial cell punches were collected and mounted onto the bottom of a Seahorse assay plate (cells facing upward). Mitochondrial respiration was assayed by measuring oxygen consumption using the Seahorse XFe24 Extracellular Flux Analyzer (Agilent Technologies, Santa Clara, Calif.) over 120 minutes (9-minute intervals). Punches were labeled with a nuclear counterstain (DAPI) and remaining tissues were mounted onto slides and labeled with 488A-Annexin V, Ethidium Homodimer III, and Hoechst 33342 (Apoptotic, Necrotic, and Healthy Cells Quantification Kit; Biotium, Fremont, Calif.) to assay cell health. Nuclei were counted in each punch to normalize respirometry data. Immunohistochemistry densitometry was measured using ImageJ software.
as §1, with “100” for “10”, “palmitate-BSA,” for “CoQ10,”, “BSA” for “diluent”
In brief, excess EDM tissues from surrounding the punches used for metabolic assays were incubated with 488A-Annexin V, Ethidium Homodimer III, and Hoechst 33342 (Apoptotic, Necrotic, and Healthy Cells Quantification Kit; Biotium, Fremont, Calif.) to detect the apoptotic, necrotic, and entire cell populations, respectively. […]

[3] = Dispersibility and solubility in water, solvents and media; format: physicochemical; settings: for solubility in cell culture: cell culture environments (primary cultures)
Procedure: 50 mg of kneaded complex added to 10 ml H2O and shaken for 2 hours.
In FIG. 10, the image on the right is 5 mg of CoQ10 added to 10 ml H2O and shaken for 2 hours.
Paired corneas were supplemented with 10 μM ubiquinol (Fuller et al., 2006) (USP analytical standard, Sigma Aldrich, St. Louis, Mo.), 100 μM palmitate-BSA (Pfleger et al., 2015) (Agilent, Santa Clara, Calif.), or diluent only for 5 days, such that one cornea from a donor received treatment while its mate from the same donor was a control. Concentrations were chosen based on previously published studies (Fuller et al., 2006; Pfleger et al., 2015). Diluents were chosen based on supplement solubility. Although several diluents were tried for ubiquinol (water, Optisol-GS, DMSO and ethanol), ethanol was chosen based on its ability to solubilize ubiquinol most successfully. No complexing agents were used to solubilize ubiquinol. Following the 5 days of storage with supplementation, tissues were processed for metabolic and cell viability assays as described below.
Due to its long hydrocarbon side chain, ubiquinol is difficult to solubilize in biocompatible solvents. In this series, several attempts were made to bring this lipid-soluble molecule into aqueous solution. First, ubiquinol was attempted to be dissolved using polar […] known to be biocompatible with CECs (Optisol-GS, water) based on the goal of achieving a high bioavailability for clinical applications. […] Next two organic polar […] solvents, DMSO and absolute ethanol, were tested. DMSO commonly is used as a solvent in cell biology and biochemistry, and both DMSO and ethanol can solubilize hydrocarbons. […] In addition to its lipophilicity, native ubiquinol is also unstable. Although not encountered in this series ubiquinol oxidizes in the presence of oxygen and light and turns yellow, indicating the formation of its oxidized form, ubiquinone. It is therefore necessary to improve the solubility and handleability of ubiquinol for future validations of its effects on oxidative stress related pathways.

[4] = 10 μM ubiquinol vs diluent-treated mate cornea, 5 days, n = 9
[5] = 10 μM ubiquinol, 5 days in Optisol-GS, n = 9 matched tissues
[6] = palmitate-BSA treated tissues (100 μM), 5 days, n = 8 matched tissues

For ubiquinol, the proton leak [1] was “no increase in proton leak”, the “protection against apoptosis and necrosis” value ([2]; 1 μM coQ10, tissues in storage) was “protected not only against apoptosis, but also against necrosis” and the “apoptosis reduced in treated cells” value ([2]; 10 μM CoQ10, 5 days in Optisol GS, vs diluent control (p=0.09)) was 29%. The “corneal endothelial cell necrosis, change vs control” value ([2]; 10 μM CoQ10, 5 days in Optisol GS, listed as CoQ10) was “not changed”, the “corneal endothelial cell necrosis, change vs control” value ([2]; 10 μM CoQ10, 5 days in Optisol GS, listed as co-Q10) was “did not change” and the “corneal endothelial cell necrosis, change vs control” value ([2]; 10 μM CoQ10, 5 days in Optisol GS, listed as coenzyme Q10) was “did not change”. For the same substance, the “% Apoptotic, Mean Ratio: Ubiquinol/Control (95% CI)” value [2, 4] was “Ratio: 0.90 (0.63, 1.29)”, the “% Necrotic, Mean Ratio: Ubiquinol/Control (95% CI)” value [2, 4] was “Ratio: 1.02 (0.91, 1.15)” and the “% Apoptotic, Mean (SD)” value [2, 5] was 0.0040 (0.0047) %. The “% Necrotic, Mean (SD)” value [2, 5] was 0.0263 (0.0070) %, the “apoptosis, change vs controls” value ([2]; Example 13: 10 μM ubiquinol, 5 days in Optisol-GS (p=0.517)) was “no significant change” and the “cell necrosis, change vs controls” value ([2]; Example 13: 10 μM ubiquinol, 5 days in Optisol-GS (p=0.694)) was “no significant change”. For the same substance, the “% Apoptotic, Mean (SD)” value [2, 6] was 0.00053 (0.00062) %, the “% Necrotic, Mean (SD)” value [2, 6] was 0.0628 (0.0532) % and the “CEC cell death in storage” value ([2]; ubiquinol supplemented corneal storage medium vs non-supplemented) was “decreased”. The “solubility in Optisol-GS storage media after dissolving in ethanol” value [3] was “appeared to remain in solution”, the dispersibility in water ([3]; 50 mg kneaded complex or 5 mg CoQ10 in 10 ml H2O, shaken for 2 hours) was “prefers to accumulate at the air-water interface or to adhere to the glass container” and the “solubility in cell culture” value [3] was “precipitated out of solution”. For the same substance, the “solubility in cell culture” value ([3]; listed as coQ10) was “not soluble”, the “solubility in DMSO” value ([3]; despite heating the solution) was “precipitated in DMSO” and the “solubility in Optisol-GS, water” value ([3]; even after heating) was “precipitated out of these solutions”. The “solubility in absolute ethanol” value ([3]; heated to 37° C., precipitates if not poured immediately into storage media) was “dissolved”.

— patent US20220249399A1, “COMPOSITION COMPRISING AN ANTI-OXIDANT TO PRESERVE CORNEAL TISSUE” (University of lowa Research Foundation, priority 2019, published 2022)
